Assay results reported in patent publication US8648066B2 (Exelixis, Inc., priority 2009, dated 2014).

Each compound was assayed against mTOR/GbL/Raptor (mTORC1) (Homo sapiens, UniProt P42345) (assay: mTOR/GbL/Raptor (mTORC1) ELISA assay). Details: phosphorylation of 4E-BP1; 0.2 nM mTORC1, 10 μM ATP; read-out: IC50 in this assay (mTORC1 ELISA).
Assay type: biochemical
In short: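 ELISA read-out: phospho-4E-BP1 captured on Ni-chelate plates and detected with anti-phospho antibody plus HRP-anti-IgG luminescence. The kinase step ran 120 min at ambient temperature with 0.2 nM human mTORC1, 10 µM ATP, 50 nM His-4E-BP1, 10 mM MnCl2, pH 7.2 HEPES.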
With `CC1(C)CCc2ncnc(N3CCOc4ccc(-c5cnc(N)c(S(C)(=O)=O)c5)cc4C3)c2C1` [Example 512, 5-[4-(6,6-dimethyl-5,6,7,8-tetrahydroquinazolin-4-yl)-2,3,4,5-tetrahydro-1,4-benzoxazepin-7-yl]-3-(methylsulfonyl)pyridin-2-amine] the IC50 was 10 to 50 nM. `CC1(C)CCc2ncnc(N3CCOc4ccc(-c5cnc(N)c(S(=O)(=O)N6CCOCC6)c5)cc4C3)c2C1` [Example 513, 5-[4-(6,6-dimethyl-5,6,7,8-tetrahydroquinazolin-4-yl)-2,3,4,5-tetrahydro-1,4-benzoxazepin-7-yl]-3-(morpholin-4-ylsulfonyl)pyridin-2-amine] gave an IC50 of 50 to 250 nM. `CC1(C)CCc2ncnc(N3CCOc4ccc(-c5cnc(N)c(S(=O)(=O)N6CCNCC6)c5)cc4C3)c2C1` [Example 514, 5-[4-(6,6-dimethyl-5,6,7,8-tetrahydroquinazolin-4-yl)-2,3,4,5-tetrahydro-1,4-benzoxazepin-7-yl]-3-(piperazin-1-ylsulfonyl)puridin-2-amine] gave an IC50 of no more than 10 nM. `CC1(C)CCc2ncnc(N3CCOc4ccc(-c5cnc(N)c(S(=O)(=O)N6CCCC6)c5)cc4C3)c2C1` [Example 515, 5-[4-(6,6-dimethyl-5,6,7,8-tetrahydroquinazolin-4-yl)-2,3,4,5-tetrahydro-1,4-benzoxazepin-7-yl]-3-(pyrrolidin-1-ylsulfonyl)pyridin-2-amine] showed an IC50 of 50 to 250 nM. In the case of `CN1CCN(S(=O)(=O)c2cc(-c3ccc4c(c3)CN(c3ncnc5c3CC(C)(C)CC5)CCO4)cnc2N)CC1` [Example 516, 5-[4-(6,6-dimethyl-5,6,7,8-tetrahydroquinazolin-4-yl)-2,3,4,5-tetrahydro-1,4-benzoxazepin-7-yl]-3-[(4-methylpiperazin-1-yl)sulfonyl]pyridin-2-amine], the IC50 is reported as 50 to 250 nM. `CC1(C)CCc2ncnc(N3CCOc4ccc(-c5cnc(N)c(CS(C)(=O)=O)c5)cc4C3)c2C1` [Example 517, 5-[4-(6,6-dimethyl-5,6,7,8-tetrahydroquinazolin-4-yl)-2,3,4,5-tetrahydro-1,4-benzoxazepin-7-yl]-3-[(methylsulfonyl)methyl] pyridin-2-amine] gave an IC50 of 10 to 50 nM. Compound `CN1C[C@@H]2C[C@H]1CN2S(=O)(=O)c1cc(-c2ccc3c(c2)CN(c2ncnc4c2CC(C)(C)CC4)CCO3)cnc1N` [Example 518, 5-[4-(6,6-dimethyl-5,6,7,8-tetrahydroquinazolin-4-yl)-2,3,4,5-tetrahydro-1,4-benzoxazepin-7-yl]-3-{[(1S,4S)-5-methyl-2,5-diazabicyclo[2.2.1]hept-2-yl]sulfonyl}pyridin-2-amine] has an IC50 of 50 to 250 nM. `CNC1CN(S(=O)(=O)c2cc(-c3ccc4c(c3)CN(c3ncnc5c3CC(C)(C)CC5)CCO4)cnc2N)C1` [Example 519, 5-[4-(6,6-dimethyl-5,6,7,8-tetrahydroquinazolin-4-yl)-2,3,4,5-tetrahydro-1,4-benzoxazepin-7-yl]-3-{[3-(methylamino)azetidin-1-yl]sulfonyl}pyridin-2-amine] was tested, and the IC50 was 10 to 50 nM. Work on `CNc1ncc(-c2ccc3c(c2)CN(c2ncnc4c2CC(C)(C)CC4)CCO3)cc1S(=O)(=O)NCCO` [Example 520, 5-[4-(6,6-dimethyl-5,6,7,8-tetrahydroquinazolin-4-yl)-2,3,4,5-tetrahydro-1,4-benzoxazepin-7-yl]-N-(2-hydroxyethyl)-2-(methylamino)pyridine-3-sulfonamide] yielded an IC50 of no more than 10 nM. For `CN(C)S(=O)(=O)c1cncc(-c2ccc3c(c2)CN(c2ncnc4c2CC(C)(C)CC4)CCO3)c1` [Example 521, 5-[4-(6,6-dimethyl-5,6,7,8-tetrahydroquinazolin-4-yl)-2,3,4,5-tetrahydro-1,4-benzoxazepin-7-yl]-N,N-dimethylpyridine-3-sulfonamide], the IC50 was 250 to 1000 nM. `CC1(C)CCc2ncnc(N3CCOc4ccc(-c5cncc(S(N)(=O)=O)c5)cc4C3)c2C1` [Example 522, 5-[4-(6,6-dimethyl-5,6,7,8-tetrahydroquinazolin-4-yl)-2,3,4,5-tetrahydro-1,4-benzoxazepin-7-yl]pyridin-3-sulfonamide] showed an IC50 of 250 to 1000 nM. For `CC1(C)CCc2ncnc(N3CCOc4ccc(-c5cnc(N)nc5)cc4C3)c2C1` [Example 523, 5-[4-(6,6-dimethyl-5,6,7,8-tetrahydroquinazolin-4-yl)-2,3,4,5-tetrahydro-1,4-benzoxazepin-7-yl]pyrimidin-2-amine], the IC50 was 50 to 250 nM. `COc1ccc2c(N3CCOc4ccc(-c5ccc6c(c5)CC(=O)N6)cc4C3)nc(C)nc2c1` [Example 524, 5-{4-[2-methyl-7-(methyloxy)quinazolin-4-yl]-2,3,4,5-tetrahydro-1,4-benzoxazepin-7-yl}-1,3-dihydro-2H-indol-2-one] showed an IC50 of 1000 to 2000 nM. With `Cc1nc2ncc(-c3ccc4c(c3)CN(c3ncnc(NC(C)C)c3C)CCO4)cc2[nH]1` [Example 525, 5-methyl-N-(1-methylethyl)-6-[7-(2-methyl-1H-imidazo[4,5-b]pyridin-6-yl)-2,3-dihydro-1,4-benzoxazepin-4(5H)-yl]pyrimidin-4-amine] the IC50 was 250 to 1000 nM. In the case of `CN(C)Cc1nc2c(c(N3CCOc4ccc(-c5cnc6sc(N)nc6c5)cc4C3)n1)CC(C)(C)CC2` [Example 526, 6-(4-{2-[(dimethylamino)methyl]-6,6-dimethyl-5,6,7,8-tetrahydroquinazolin-4-yl}-2,3,4,5-tetrahydro-1,4-benzoxazepin-7-yl)[1,3]thiazolo[5,4-b]pyridin-2-amine], the IC50 is reported as 10 to 50 nM. For `COc1ccc2c(N3CCOc4ccc(-c5cnc6sc(N)nc6c5)cc4C3)nc(CN(C)C)nc2c1` [Example 527, 6-(4-{2-[(dimethylamino)methyl]-7-(methyloxy)quinazolin-4-yl}-2,3,4,5-tetrahydro-1,4-benzoxazepin-7-yl)[1,3]thiazolo[5,4-b]pyridin-2-amine], the IC50 was 250 to 1000 nM. For `Cc1nc(Nc2ccccc2)c(C)c(N2CCOc3ccc(-c4ccc5nc[nH]c5c4)cc3C2)n1` [Example 529, 6-[7-(1H-benzimidazol-6-yl)-2,3-dihydro-1,4-benzoxazepin-4(5H)-yl]-2,5-dimethyl-N-phenylpyrimidin-4-amine], the IC50 was 250 to 1000 nM. In the case of `Cc1nc(Nc2ccccc2)c(C)c(N2CCOc3ccc(-c4cnc5nc[nH]c5c4)cc3C2)n1` [Example 530], the IC50 is reported as 10 to 50 nM. `Cc1c(NC2CCN(C)CC2)ncnc1N1CCOc2ccc(-c3cnc4nc(C5CC5)[nH]c4c3)cc2C1` [Example 531, 6-[7-(2-cyclopropyl-1H-imidazo[4,5-b]pyridin-6-yl)-2,3-dihydro-1,4-benzoxazepin-4(5H)-yl]-5-methyl-N-(1-methylpiperidin-4-yl)pyrimidin-4-amine] gave an IC50 of 250 to 1000 nM. `Cc1c(NC2CCOCC2)ncnc1N1CCOc2ccc(-c3cnc4nc(C5CC5)[nH]c4c3)cc2C1` [Example 532, 6-[7-(2-cyclopropyl-1H-imidazo[4,5-b]pyridin-6-yl)-2,3-dihydro-1,4-benzoxazepin-4(5H)-yl]-5-methyl-N-(tetrahydro-2H-pyran-4-yl)pyrimidin-4-amine] showed an IC50 of 250 to 1000 nM. Work on `Cc1c(NCC2CCN(C)CC2)ncnc1N1CCOc2ccc(-c3cnc4nc(C5CC5)[nH]c4c3)cc2C1` [Example 533, 6-[7-(2-cyclopropyl-1H-imidazo[4,5-b]pyridin-6-yl)-2,3-dihydro-1,4-benzoxazepin-4(5H)-yl]-5-methyl-N-[(1-methylpiperidin-4-yl)methyl]pyrimidin-4-amine] yielded an IC50 of no less than 2000 nM.
